# In patent publication US6583147B1, “Pyrazolopyrimidinone derivatives for the treatment of impotence” (Dong A Pharm Co., Ltd., priority 1998, dated 2003):
# How the values were obtained:
# [1] = Acute oral toxicity test in rats; settings: SD, rat, in vivo, 1 g/kg; rats, oral single dose; read-out: lethal dose (LD50) of oral administration
# [2] = molecular target: T1, Phosphodiesterase-5 enzyme (PDE 5) (Homo sapiens, UniProt O76074); assay: Test for phosphodiesterase-5 (PDE 5) activity; assay type: biochemical; settings: PDE 5 fraction from human corpus cavernosal tissues
# T1 construct: separated by HPLC (Mono Q anion exchange column) with concentration gradient of 0-500 mM NaCl to elute PDE isozymes; from tissue; host or cells: human corpus cavernosal tissue
# rats = assay: Penile erection test using rats; assay type: in vivo, rat; settings: oral single dose 10 mg/kg in 0.5% methyl cellulose, observed for 2 hours
Structure (SMILES),LD50 [1] [mg/kg],IC50 [2] [nM],PEI (penile erection index) (rats),genital grooming (number of genital groomings) (rats)
"CCCc1nn(C)c2c(=O)[nH]c(-c3cc(S(=O)(=O)NC(C)C)ccc3OCC)nc12 [Example 1, 5-[2-ethoxy-5-(isopropylamidosulfonyl)phenyl]-1-methyl-3-propyl-1,6-dihydro-7H-pyrazolo(4,3-d)pyrimidin-7-one]",> 1000,8.63,366.7 ± 38.5,3.0 ± 1.0
CCOc1ccc(S(=O)(=O)NC(C)C)cc1-c1nc2c(CC(C)C)nn(C)c2c(=O)[nH]1 [Example 4],,,133.3 ± 57.7,2.3 ± 1.2
"CCCc1nn(CC)c2c(=O)[nH]c(-c3cc(S(=O)(=O)NC(C)C)ccc3OCC)nc12 [Example 5, 5-[2-ethoxy-5-(isopropylamidosulfonyl)phenyl]-1-ethyl-3-propyl-1,6-dihydro-7H-pyrazolo(4,3-d)pyrimidin-7-one]",> 1000,19.6,266.7 ± 57.7,3.3 ± 1.2
"CCCNS(=O)(=O)c1ccc(OCC)c(-c2nc3c(CCC)nn(C)c3c(=O)[nH]2)c1 [Example 7, 5-[2-ethoxy-5-(propylamidosulfonyl)phenyl]-1-methyl-3-propyl-1,6-dihydro-7H-pyrazolo(4,3-d)pyrimidin-7-one]",> 1000,20.7,200.0 ± 0.0,6.7 ± 3.8
"CCCNS(=O)(=O)c1ccc(OCC)c(-c2nc3c(CCC)nn(CC)c3c(=O)[nH]2)c1 [Example 8, 5-[2-ethoxy-5-(propylamidosulfonyl)phenyl]-1-ethyl-3-propyl-1,6-dihydro-7H-pyrazolo(4,3-d)pyrimidin-7-one]",> 1000,25.3,200.0 ± 100.0,3.0 ± 1.0
"CCCc1nn(C)c2c(=O)[nH]c(-c3cc(S(=O)(=O)NC(C)CC)ccc3OCC)nc12 (centres unmarked) [Example 10, 5-[2-ethoxy-5-(2-butylamidosulfonyl)phenyl]-1-methyl-3-propyl-1,6-dihydro-7H-pyrazolo(4,3-d)pyrimidin-7-one]",> 1000,3.78,466.7 ± 305.5,4.0 ± 1.7
CCCc1nn(C)c2c(=O)[nH]c(-c3cc(S(=O)(=O)NC(CC)CC)ccc3OCC)nc12 [Example 11],,,100 ± 0.0,2.7 ± 2.1
CCCc1nn(C)c2c(=O)[nH]c(-c3cc(S(=O)(=O)NC(C)(C)C)ccc3OCC)nc12 [Example 12],,,22.2 ± 38.5,0.3 ± 0.6
"CCCc1nn(C)c2c(=O)[nH]c(-c3cc(S(=O)(=O)NC4CC4)ccc3OCC)nc12 [Example 13, 5-[2-ethoxy-5-(cyclopropylamidosulfonyl)phenyl]-1-methyl-3-propyl-1,6-dihydro-7H-pyrazolo(4,3-d)pyrimidin-7-one]",> 1000,21.7,300.0 ± 100.0,4.3 ± 1.2
"CCCc1nn(CC)c2c(=O)[nH]c(-c3cc(S(=O)(=O)NC4CC4)ccc3OCC)nc12 [Example 14, 5-[2-ethoxy-5-(cyclopropylamidosulfonyl)phenyl]-1-ethyl-3-propyl-1,6-dihydro-7H-pyrazolo(4,3-d)pyrimidin-7-one]",> 1000,79.5,233.3 ± 57.7,3.0 ± 1.0
CCOc1ccc(S(=O)(=O)NC2CC2)cc1-c1nc2c(CC(C)C)nn(C)c2c(=O)[nH]1 [Example 15],,,111.1 ± 101.8,0.7 ± 0.6
CCCOc1ccc(S(=O)(=O)NC2CC2)cc1-c1nc2c(CCC)nn(C)c2c(=O)[nH]1 [Example 16],,,100 ± 0,1.7 ± 0.6
CCCc1nn(C)c2c(=O)[nH]c(-c3cc(S(=O)(=O)NC4CCC4)ccc3OCC)nc12 [Example 17],,,66.7 ± 66.7,1.0 ± 1.0
CCCc1nn(C)c2c(=O)[nH]c(-c3cc(S(=O)(=O)NC4CCCC4)ccc3OCC)nc12 [Example 18],,,44.4 ± 38.5,1.3 ± 0.6
"CCCc1nn(C)c2c(=O)[nH]c(-c3cc(S(=O)(=O)NC4CCCCC4)ccc3OCC)nc12 [Example 19, 5-[2-ethoxy-5-(cyclohexylamidosulfonyl)phenyl]-1-methyl-3-propyl-1,6-dihydro-7H-pyrazolo(4,3-d)pyrimidin-7-one]",> 1000,4.98,233.3 ± 57.7,5.0 ± 0.0
CCOc1ccc(S(=O)(=O)NC2CCCCC2)cc1-c1nc2c(CC(C)C)nn(C)c2c(=O)[nH]1 [Example 20],,,266.7 ± 57.7,2.3 ± 0.6
CCCc1nn(C)c2c(=O)[nH]c(-c3cc(S(=O)(=O)NCC4CCCO4)ccc3OCC)nc12 (centres unmarked) [Example 21],,,44.4 ± 38.5,2.3 ± 1.5

Structure (SMILES),LD50 [1] [mg/kg],IC50 [2] [nM],PEI (penile erection index) (rats),genital grooming (number of genital groomings) (rats)
"CCCOc1ccc(S(=O)(=O)NCc2ccccc2)cc1-c1nc2c(CCC)nn(C)c2c(=O)[nH]1 [Example 23, 5-[2-propyloxy-5-(benzylamidosulfonyl)phenyl]-1-methyl-3-propyl-1,6-dihydro-7H-pyrazolo(4,3-d)pyrimidin-7-one]",> 1000,12.7,266.7 ± 57.7,3.0 ± 1.0
"CCCc1nn(CC)c2c(=O)[nH]c(-c3cc(S(=O)(=O)NCc4ccccc4)ccc3OCC)nc12 [Example 24, 5-[2-ethoxy-5-(benzylamidosulfonyl)phenyl]-1-ethyl-3-propyl-1,6-dihydro-7H-pyrazolo(4,3-d)pyrimidin-7-one]",> 1000,86,233.3 ± 230.9,2.7 ± 2.9
CCCc1nn(C)c2c(=O)[nH]c(-c3cc(S(=O)(=O)Nc4ccccc4)ccc3OCC)nc12 [Example 25],,,44.4 ± 38.5,2.0 ± 0.0
"CCCc1nn(C)c2c(=O)[nH]c(-c3cc(S(=O)(=O)Nc4ccc(F)cc4)ccc3OCC)nc12 [Example 26, 5-[2-ethoxy-5-(4-fluorophenylamidosulfonyl)phenyl]-1-methyl-3-propyl-1,6-dihydro-7H-pyrazolo(4,3-d)pyrimidin-7-one]",> 1000,74.6,133.3 ± 133.3,4.0 ± 1.7
CCCc1nn(C)c2c(=O)[nH]c(-c3cc(S(=O)(=O)Nc4ccc(C)cc4)ccc3OCC)nc12 [Example 27],,,66.7 ± 66.7,2.7 ± 1.2
"CCCc1nn(C)c2c(=O)[nH]c(-c3cc(S(=O)(=O)Nc4ccc(C(C)(C)C)cc4)ccc3OCC)nc12 [Example 28, 5-[2-ethoxy-5-(4-t-butylphenylamidosulfonyl)phenyl]-1-methyl-3-propyl-1,6-dihydro-7H-pyrazolo(4,3-d)pyrimidin-7-one]",> 1000,46.6,300.0 ± 100.0,3.0 ± 1.0
"CCCc1nn(CC)c2c(=O)[nH]c(-c3cc(S(=O)(=O)Nc4ccc(C(C)(C)C)cc4)ccc3OCC)nc12 [Example 29, 5-[2-ethoxy-5-(4-t-butylphenylamidosulfonyl)phenyl]-1-ethyl-3-propyl-1,6-dihydro-7H-pyrazolo(4,3-d)pyrimidin-7-one]",> 1000,49.8,233.3 ± 152.8,3.0 ± 2.0
CCOc1ccc(S(=O)(=O)Nc2ccc(C(C)(C)C)cc2)cc1-c1nc2c(CC(C)C)nn(C)c2c(=O)[nH]1 [Example 30],,,133.3 ± 57.7,2.3 ± 0.6
CCCc1nn(C)c2c(=O)[nH]c(-c3cc(S(=O)(=O)Nc4cc(C)cc(C)c4)ccc3OCC)nc12 [Example 32],,,66.7 ± 66.7,1.3 ± 1.5
CCCc1nn(C)c2c(=O)[nH]c(-c3cc(S(=O)(=O)Nc4ccccn4)ccc3OCC)nc12 [Example 42],,,33.3 ± 57.7,1.3 ± 1.5
CCCc1nn(C)c2c(=O)[nH]c(-c3cc(S(=O)(=O)NCc4ccncc4)ccc3OCC)nc12 [Example 43],,,11.1 ± 19.3,0.7 ± 0.6
CCCc1nn(CC)c2c(=O)[nH]c(-c3cc(S(=O)(=O)NCc4ccncc4)ccc3OCC)nc12 [Example 45],,,22.2 ± 38.5,0.7 ± 1.2
CCCc1nn(C)c2c(=O)[nH]c(-c3cc(S(=O)(=O)NCc4ccccn4)ccc3OCC)nc12 [Example 50],,,44.3 ± 38.5,1.0 ± 0.0
CCCc1nn(C)c2c(=O)[nH]c(-c3cc(S(=O)(=O)NCC4CCCN4C)ccc3OCC)nc12 (centres unmarked) [Example 55],,103,350.0 ± 173.2,3.8 ± 1.5
CCCc1nn(CC)c2c(=O)[nH]c(-c3cc(S(=O)(=O)NCC4CCN(C)C4)ccc3OCC)nc12 (centres unmarked) [Example 61],,93.9,25.0 ± 28.9,0.8 ± 0.5
CCCc1nn(C)c2c(=O)[nH]c(-c3cc(S(=O)(=O)NCCC4CCCN4C)ccc3OCC)nc12 (centres unmarked) [Example 67],,63,75.0 ± 61.2,1.8 ± 1.5
